Assay results reported in patent US12024736B2, “Method for detecting l-serine based on Escherichia coli cysteine desulfurase” (priority 2021, dated 2024).

Key:
Type in all cases: biochemical
[1] = molecular target: T1, E. coli cysteine desulfurase (Escherichia coli, UniProt P0A6B7, P222S); experiment: Anti-interference of the detection method for D-serine, cycloserine and serine derivatives
T1 construct: C-terminal histidine stretch (HHHHHH); made in house; host or cells: E. coli (IscA-/SufA- double-deficient strain is mentioned in the summary)

[2] = molecular target: T1, E. coli cysteine desulfurase; experiment: Determination of the ability to resist other L-amino acids (colour after incubation with enzyme); conditions: 4 mM amino acid, equal volume of enzyme, 37° C., 250 rpm, 2 h, naked eye
[3] = molecular target: T1, E. coli cysteine desulfurase; experiment: Quantitative detection of L-serine, absorbance at 528 nm (reaction time and linear range); conditions: L-serine standard with reaction buffer, 25° C.
Method: B. Reaction buffer: 40 mM Tris-HCl buffer (pH 9.0), 100 μM E. coli cysteine desulfurase, and 0.4 mM L-cysteine.
L-serine to be tested was mixed with the reaction buffer in equal volumes, and incubated at 25° ° C. for different times; the absorbance was measured at a wavelength of 528 nm; a curve was plotted with the time as the horizontal axis and the absorbance value at 528 nm as the longitudinal axis.
The L-serine standard solution was diluted to three concentrations, respectively: 0.50 mM, 1.00 mM, and 2.00 mM. Each serial dilution of the standard solution and the unknown sample (100 μL) were each mixed with 100 μL of reaction buffer, incubated at room temperature (25° C.) for 2 h, and the absorbance at 528 nm was measured for sample and standard tubes, respectively.
A standard curve was plotted with the concentration of the standard solution as the abscissa and the absorbance measured at a wavelength of 528 nm as the ordinate, and the curve was fitted to obtain a curve equation and an R^2 value.

| Compound | anti-interference ability of the detection method [1] | colour after incubation with E. coli cysteine desulfurase [2] | incubation time at which the absorption peak at 528 nm reaches the highest [3] [h] |
| --- | --- | --- | --- |
| N[C@H](CO)C(=O)O [D-serine] | good anti-interference ability | – | – |
| N[C@@H]1CON=C1O [cycloserine] | good anti-interference ability | – | – |
| N[C@@H](CO)C(=O)O [L-serine] | – | red | 2 |
